Measured values as given in ChEMBL document CHEMBL4800722, “Data for DCP probe BI 605906” (2021).

Assays:
[1] = target: Tyrosine-protein kinase HCK (Homo sapiens) (UniProt P08631); details: Compound concentration 1.0 uM
[2] = target: Serine/threonine-protein kinase mTOR (Homo sapiens) (UniProt P42345)
[3] = target: Serine/threonine-protein kinase D1 (Homo sapiens) (UniProt Q15139); assay: PRKD1 Invitrogen Lab (UK) kinase screen (BI); details: Compound concentration 1.0 uM
[4] = target: Serine/threonine-protein kinase haspin (Homo sapiens) (UniProt Q8TF76); assay: GSG2 Invitrogen Lab (UK) kinase screen (BI); details: Compound concentration 1.0 uM
[5] = target: Serine/threonine-protein kinase NIM1 (Homo sapiens) (UniProt Q8IY84); details: Compound concentration 1.0 uM
[6] = target: 5-hydroxytryptamine receptor 1B (Homo sapiens) (UniProt P28222); details: Compound concentration 10.0 uM
[7] = target: Serine/threonine-protein kinase PLK1 (Homo sapiens) (UniProt P53350)
Sequence of Serine/threonine-protein kinase PLK1 (Homo sapiens) (P53350 whole entry): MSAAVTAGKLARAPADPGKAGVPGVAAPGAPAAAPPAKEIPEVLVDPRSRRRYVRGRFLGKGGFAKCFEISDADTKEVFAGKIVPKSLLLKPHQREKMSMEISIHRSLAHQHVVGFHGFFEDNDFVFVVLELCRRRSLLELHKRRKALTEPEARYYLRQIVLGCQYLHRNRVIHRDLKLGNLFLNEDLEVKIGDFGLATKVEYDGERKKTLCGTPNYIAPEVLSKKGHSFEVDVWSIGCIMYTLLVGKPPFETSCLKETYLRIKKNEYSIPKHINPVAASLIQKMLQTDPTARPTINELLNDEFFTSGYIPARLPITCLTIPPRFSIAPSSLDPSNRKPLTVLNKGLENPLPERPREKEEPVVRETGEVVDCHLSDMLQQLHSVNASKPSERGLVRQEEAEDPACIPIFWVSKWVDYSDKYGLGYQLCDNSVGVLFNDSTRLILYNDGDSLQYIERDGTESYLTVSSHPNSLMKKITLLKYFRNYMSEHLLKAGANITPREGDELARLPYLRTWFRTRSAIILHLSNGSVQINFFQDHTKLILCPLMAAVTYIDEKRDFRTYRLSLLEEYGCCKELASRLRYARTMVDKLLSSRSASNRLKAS

[8] = target: Serine/threonine-protein kinase 16 (Homo sapiens) (UniProt O75716); details: Compound concentration 1.0 uM
[9] = target: Calcium/calmodulin-dependent protein kinase type 1 (Homo sapiens) (UniProt Q14012); assay: CAMK1 DUNDEE kinase screen (BI); details: Compound concentration 10.0 uM
[10] = target: Cyclin-dependent kinase-like 5 (Homo sapiens) (UniProt O76039); assay: CDKL5 Invitrogen Lab (UK) kinase screen (BI); details: Compound concentration 1.0 uM
[11] = target: Ephrin type-A receptor 4 (Homo sapiens) (UniProt P54764); details: Compound concentration 1.0 uM
[12] = target: Serine/threonine-protein kinase DCLK1 (Homo sapiens) (UniProt O15075); details: Compound concentration 1.0 uM
[13] = target: Serine/threonine-protein kinase Sgk1 (Homo sapiens) (UniProt O00141); details: Compound concentration 10.0 uM
[14] = target: Protein kinase C alpha type (Homo sapiens) (UniProt P17252); assay: PKCA DUNDEE kinase screen (BI); details: Compound concentration 10.0 uM
[15] = target: Serine/threonine-protein kinase 17A (Homo sapiens) (UniProt Q9UEE5); assay: STK17A Invitrogen Lab (UK) kinase screen (BI); details: Compound concentration 1.0 uM
[16] = target: Mitogen-activated protein kinase 3 (Homo sapiens) (UniProt P27361); details: Compound concentration 1.0 uM
[17] = target: Bone morphogenetic protein receptor type-1B (Homo sapiens) (UniProt O00238); assay: BMPR1B (ALK6) Invitrogen Lab (UK) kinase screen (BI); details: Compound concentration 1.0 uM
[18] = target: D(3) dopamine receptor (Homo sapiens) (UniProt P35462); details: Compound concentration 10.0 uM
[19] = target: G protein-coupled receptor kinase 5 (Homo sapiens) (UniProt P34947); details: Compound concentration 1.0 uM
[20] = target: ALK tyrosine kinase receptor (Homo sapiens) (UniProt Q9UM73); assay: ALK Invitrogen Lab (UK) kinase screen (BI)
Sequence of ALK tyrosine kinase receptor (Homo sapiens) (Q9UM73 19-1620 limits assumed): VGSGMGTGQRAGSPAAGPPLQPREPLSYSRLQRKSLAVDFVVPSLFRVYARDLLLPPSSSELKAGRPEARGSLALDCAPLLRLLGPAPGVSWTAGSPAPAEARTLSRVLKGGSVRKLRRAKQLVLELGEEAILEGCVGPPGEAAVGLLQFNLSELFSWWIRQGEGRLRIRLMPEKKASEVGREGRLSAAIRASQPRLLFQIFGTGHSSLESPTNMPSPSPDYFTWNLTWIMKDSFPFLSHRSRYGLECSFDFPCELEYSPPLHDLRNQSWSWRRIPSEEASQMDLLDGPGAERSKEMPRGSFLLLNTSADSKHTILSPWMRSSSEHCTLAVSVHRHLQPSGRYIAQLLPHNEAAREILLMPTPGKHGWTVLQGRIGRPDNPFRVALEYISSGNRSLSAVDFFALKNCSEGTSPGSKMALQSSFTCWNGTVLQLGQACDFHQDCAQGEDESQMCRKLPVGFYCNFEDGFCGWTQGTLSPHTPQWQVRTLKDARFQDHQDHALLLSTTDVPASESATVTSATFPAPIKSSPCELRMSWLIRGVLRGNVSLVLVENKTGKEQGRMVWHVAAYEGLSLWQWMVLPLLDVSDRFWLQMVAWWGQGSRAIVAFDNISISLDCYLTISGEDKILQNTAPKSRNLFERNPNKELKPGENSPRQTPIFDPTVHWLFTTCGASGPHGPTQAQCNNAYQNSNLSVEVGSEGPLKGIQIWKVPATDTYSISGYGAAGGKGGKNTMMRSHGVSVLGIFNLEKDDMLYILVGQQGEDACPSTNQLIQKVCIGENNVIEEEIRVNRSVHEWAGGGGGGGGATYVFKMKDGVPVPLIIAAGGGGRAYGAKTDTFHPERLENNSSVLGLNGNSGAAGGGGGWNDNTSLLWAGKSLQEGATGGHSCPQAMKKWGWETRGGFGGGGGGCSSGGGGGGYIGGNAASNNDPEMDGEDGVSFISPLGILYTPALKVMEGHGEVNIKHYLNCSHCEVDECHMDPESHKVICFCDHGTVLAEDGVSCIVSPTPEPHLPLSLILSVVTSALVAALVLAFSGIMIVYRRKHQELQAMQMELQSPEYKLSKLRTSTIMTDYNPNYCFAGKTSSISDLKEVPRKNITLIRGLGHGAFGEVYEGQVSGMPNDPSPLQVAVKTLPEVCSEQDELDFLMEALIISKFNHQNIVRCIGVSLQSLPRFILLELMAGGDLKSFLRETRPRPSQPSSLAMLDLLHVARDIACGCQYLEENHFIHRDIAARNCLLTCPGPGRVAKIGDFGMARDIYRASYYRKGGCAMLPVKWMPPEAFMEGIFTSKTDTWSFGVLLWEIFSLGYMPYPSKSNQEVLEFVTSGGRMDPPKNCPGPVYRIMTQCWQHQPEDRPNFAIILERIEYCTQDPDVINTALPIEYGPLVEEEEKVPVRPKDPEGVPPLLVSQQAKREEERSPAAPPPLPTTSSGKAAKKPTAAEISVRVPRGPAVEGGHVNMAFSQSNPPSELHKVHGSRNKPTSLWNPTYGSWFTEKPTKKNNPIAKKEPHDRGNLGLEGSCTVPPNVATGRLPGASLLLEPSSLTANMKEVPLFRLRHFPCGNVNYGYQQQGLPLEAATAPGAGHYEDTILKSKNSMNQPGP

[21] = target: Serine/threonine-protein kinase D1 (Homo sapiens) (UniProt Q15139); assay: PKD1 DUNDEE kinase screen (BI); details: Compound concentration 10.0 uM
[22] = target: Ephrin type-A receptor 2 (Homo sapiens) (UniProt P29317)
Sequence of Ephrin type-A receptor 2 (Homo sapiens) (P29317 whole entry): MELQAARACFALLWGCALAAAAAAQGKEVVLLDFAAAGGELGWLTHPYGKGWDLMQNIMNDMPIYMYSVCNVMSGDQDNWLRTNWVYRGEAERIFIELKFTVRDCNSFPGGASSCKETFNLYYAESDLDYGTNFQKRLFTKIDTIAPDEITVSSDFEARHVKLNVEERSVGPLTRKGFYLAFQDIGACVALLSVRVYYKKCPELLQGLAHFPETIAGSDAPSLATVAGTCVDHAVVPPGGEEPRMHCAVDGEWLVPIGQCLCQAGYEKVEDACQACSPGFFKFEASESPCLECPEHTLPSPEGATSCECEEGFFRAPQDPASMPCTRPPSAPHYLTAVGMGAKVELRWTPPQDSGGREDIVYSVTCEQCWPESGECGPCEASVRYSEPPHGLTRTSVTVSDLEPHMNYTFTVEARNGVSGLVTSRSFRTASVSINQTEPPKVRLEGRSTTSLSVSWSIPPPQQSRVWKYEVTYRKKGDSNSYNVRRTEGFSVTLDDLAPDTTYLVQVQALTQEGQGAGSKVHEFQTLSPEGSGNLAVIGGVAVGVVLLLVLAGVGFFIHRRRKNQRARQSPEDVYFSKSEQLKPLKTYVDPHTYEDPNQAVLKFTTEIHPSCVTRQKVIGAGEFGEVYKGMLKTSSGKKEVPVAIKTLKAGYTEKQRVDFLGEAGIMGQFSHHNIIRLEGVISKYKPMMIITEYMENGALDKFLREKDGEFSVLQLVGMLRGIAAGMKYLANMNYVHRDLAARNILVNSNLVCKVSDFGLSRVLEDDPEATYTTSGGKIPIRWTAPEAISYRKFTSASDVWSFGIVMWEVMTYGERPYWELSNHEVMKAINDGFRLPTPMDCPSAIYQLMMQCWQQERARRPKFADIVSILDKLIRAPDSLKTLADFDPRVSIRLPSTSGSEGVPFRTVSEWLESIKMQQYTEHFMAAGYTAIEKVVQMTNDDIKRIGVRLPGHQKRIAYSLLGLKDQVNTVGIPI

[23] = target: Calcium/calmodulin-dependent protein kinase type 1D (Homo sapiens) (UniProt Q8IU85); details: Compound concentration 1.0 uM
[24] = target: CDK18/Cyclin Y (Homo sapiens) (UniProt Q07002+Q8ND76); details: Compound concentration 1.0 uM
[25] = target: Serotonin 2 (5-HT2) receptor (Rattus norvegicus) (UniProt P30994+P08909+P14842)
Sequence of Serotonin 2 (5-HT2) receptor (Rattus norvegicus) (P08909 whole entry, looked up): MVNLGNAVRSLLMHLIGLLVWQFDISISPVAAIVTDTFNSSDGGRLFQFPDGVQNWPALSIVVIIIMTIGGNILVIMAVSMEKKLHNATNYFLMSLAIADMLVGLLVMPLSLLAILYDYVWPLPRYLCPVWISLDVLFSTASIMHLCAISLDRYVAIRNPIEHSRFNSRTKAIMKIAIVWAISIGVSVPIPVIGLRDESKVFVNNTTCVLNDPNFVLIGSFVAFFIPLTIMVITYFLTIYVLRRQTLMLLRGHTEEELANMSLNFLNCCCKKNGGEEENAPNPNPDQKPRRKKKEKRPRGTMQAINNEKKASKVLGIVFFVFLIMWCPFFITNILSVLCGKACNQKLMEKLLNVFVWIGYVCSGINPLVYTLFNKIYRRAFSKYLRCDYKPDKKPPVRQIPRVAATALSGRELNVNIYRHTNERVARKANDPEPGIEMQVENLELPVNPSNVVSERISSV
Sequence of Serotonin 2 (5-HT2) receptor (Rattus norvegicus) (P14842 whole entry, looked up): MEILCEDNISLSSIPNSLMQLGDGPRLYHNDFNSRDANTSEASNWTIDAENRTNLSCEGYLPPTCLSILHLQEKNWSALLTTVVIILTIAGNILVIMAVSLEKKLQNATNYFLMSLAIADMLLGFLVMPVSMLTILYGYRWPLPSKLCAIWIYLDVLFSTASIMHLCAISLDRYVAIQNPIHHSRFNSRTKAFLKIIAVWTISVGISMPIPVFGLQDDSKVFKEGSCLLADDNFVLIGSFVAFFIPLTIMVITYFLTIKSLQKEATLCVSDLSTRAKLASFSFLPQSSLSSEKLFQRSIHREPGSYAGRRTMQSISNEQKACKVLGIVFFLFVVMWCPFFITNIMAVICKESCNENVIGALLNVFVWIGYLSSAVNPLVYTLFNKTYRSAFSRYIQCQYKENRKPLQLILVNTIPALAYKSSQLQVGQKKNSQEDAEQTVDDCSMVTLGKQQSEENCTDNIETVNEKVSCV
Sequence of Serotonin 2 (5-HT2) receptor (Rattus norvegicus) (P30994 whole entry, looked up): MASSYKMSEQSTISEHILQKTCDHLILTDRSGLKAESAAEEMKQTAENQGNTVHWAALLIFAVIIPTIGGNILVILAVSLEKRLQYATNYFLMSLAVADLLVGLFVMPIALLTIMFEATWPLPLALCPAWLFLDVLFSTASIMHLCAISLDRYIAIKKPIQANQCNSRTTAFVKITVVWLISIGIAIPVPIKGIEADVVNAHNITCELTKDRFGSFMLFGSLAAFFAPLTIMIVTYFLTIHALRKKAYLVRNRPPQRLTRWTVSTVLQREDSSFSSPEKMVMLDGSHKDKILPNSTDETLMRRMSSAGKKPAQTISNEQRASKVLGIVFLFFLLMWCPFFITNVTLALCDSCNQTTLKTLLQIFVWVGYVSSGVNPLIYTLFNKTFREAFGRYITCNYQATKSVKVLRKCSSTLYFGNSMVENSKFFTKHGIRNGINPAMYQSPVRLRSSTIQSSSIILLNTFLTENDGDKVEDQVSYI

[26] = target: Serine/threonine-protein kinase greatwall (Homo sapiens) (UniProt Q96GX5); assay: MASTL Invitrogen Lab (UK) kinase screen (BI); details: Compound concentration 1.0 uM
[27] = target: Serine/threonine-protein kinase pim-3 (Homo sapiens) (UniProt Q86V86); assay: PIM3 Invitrogen Lab (UK) kinase screen (BI); details: Compound concentration 1.0 uM
[28] = target: Dual specificity testis-specific protein kinase 1 (Homo sapiens) (UniProt Q15569); details: Compound concentration 1.0 uM
[29] = target: Activated CDC42 kinase 1 (Homo sapiens) (UniProt Q07912); details: Compound concentration 1.0 uM
[30] = target: LIM domain kinase 1 (Homo sapiens) (UniProt P53667); details: Compound concentration 1.0 uM
[31] = target: Dual specificity tyrosine-phosphorylation-regulated kinase 3 (Homo sapiens) (UniProt O43781); details: Compound concentration 1.0 uM
[32] = target: Activin receptor type-2A (Homo sapiens) (UniProt P27037); details: Compound concentration 1.0 uM
[33] = target: Inhibitor of nuclear factor kappa-B kinase subunit epsilon (Homo sapiens) (UniProt Q14164)
[34] = target: 3-phosphoinositide-dependent protein kinase 1 (Homo sapiens) (UniProt O15530)
[35] = target: Cyclin-C/Cyclin-dependent kinase 19 (Homo sapiens) (UniProt Q9BWU1+P24863); assay: CDK11/CYCLIN C Invitrogen Lab (UK) kinase screen (BI); type: protein-complex assay; details: Compound concentration 1.0 uM
[36] = target: RAC-beta serine/threonine-protein kinase (Homo sapiens) (UniProt P31751); details: Compound concentration 1.0 uM
Sequence of RAC-beta serine/threonine-protein kinase (Homo sapiens) (P31751 whole entry): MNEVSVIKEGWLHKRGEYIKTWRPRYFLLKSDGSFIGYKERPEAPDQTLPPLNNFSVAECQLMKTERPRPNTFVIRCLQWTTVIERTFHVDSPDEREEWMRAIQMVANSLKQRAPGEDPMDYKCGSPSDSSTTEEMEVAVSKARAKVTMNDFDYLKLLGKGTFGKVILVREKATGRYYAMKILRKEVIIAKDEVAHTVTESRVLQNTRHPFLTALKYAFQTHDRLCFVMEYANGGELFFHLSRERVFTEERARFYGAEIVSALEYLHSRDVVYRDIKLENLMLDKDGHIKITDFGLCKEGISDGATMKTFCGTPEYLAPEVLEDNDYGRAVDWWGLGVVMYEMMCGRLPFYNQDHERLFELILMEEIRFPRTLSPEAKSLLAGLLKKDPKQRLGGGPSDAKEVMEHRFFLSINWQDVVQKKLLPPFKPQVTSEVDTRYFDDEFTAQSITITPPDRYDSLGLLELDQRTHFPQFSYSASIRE

[37] = target: Death-associated protein kinase 3 (Homo sapiens) (UniProt O43293); details: Compound concentration 1.0 uM
[38] = target: TGF-beta receptor type-1 (Homo sapiens) (UniProt P36897); details: Compound concentration 1.0 uM
[39] = target: Mitogen-activated protein kinase kinase kinase kinase 4 (Homo sapiens) (UniProt O95819)
[40] = target: SRSF protein kinase 3 (Homo sapiens) (UniProt Q9UPE1); details: Compound concentration 1.0 uM
[41] = target: Phosphodiesterase 3 (Homo sapiens) (UniProt Q14432+Q13370); assay: PDE-III/HU Eurofins SafetyScreen44 (BI); type: protein assay; details: Compound concentration 10.0 uM

CCC(F)(F)c1cc(N2CCC(S(C)(=O)=O)CC2)nc2sc(C(N)=O)c(N)c12 [BI-605906]
residual activity [1]: 90%
residual activity ([2]; Compound concentration 1.0 uM): 99%
residual activity ([2]; Compound concentration 10.0 uM): 98%
residual activity [3]: 83%
residual activity [4]: 70%
residual activity [5]: 93%
inhibition [6]: 3.43%
residual activity ([7]; Compound concentration 1.0 uM): 94%
residual activity ([7]; Compound concentration 10.0 uM): 109%
residual activity [8]: 91%
residual activity [9]: 78.4%
residual activity [10]: 103%
residual activity [11]: 93%
residual activity [12]: 99%
residual activity [13]: 101%
residual activity [14]: 66.9%
residual activity [15]: 80%
residual activity [16]: 100%
residual activity [17]: 74%
residual activity [18]: 105%
residual activity [19]: 96%
residual activity ([20]; Compound concentration 1.0 uM): 80%
residual activity ([20]; Compound concentration 10.0 uM): 74%
residual activity [21]: 93.5%
residual activity ([22]; Compound concentration 1.0 uM): 93%
residual activity ([22]; Compound concentration 10.0 uM): 63%
residual activity [23]: 98%
residual activity [24]: 96%
residual activity ([25]; Compound concentration 10.0 uM): 97%
residual activity ([25]; Compound concentration 100.0 uM): 95%
residual activity [26]: 85%
residual activity [27]: 103%
residual activity [28]: 92%
residual activity [29]: 97%
residual activity [30]: 97%
residual activity [31]: 92%
residual activity [32]: 108%
residual activity ([33]; Compound concentration 1.0 uM): 98%
residual activity ([33]; Compound concentration 10.0 uM): 98%
residual activity ([34]; Compound concentration 1.0 uM): 89%
residual activity ([34]; Compound concentration 10.0 uM): 101%
residual activity [35]: 83%
residual activity [36]: 95%
residual activity [37]: 101%
residual activity [38]: 94%
residual activity ([39]; Compound concentration 1.0 uM): 95%
residual activity ([39]; Compound concentration 10.0 uM): 89%
residual activity [40]: 99%
residual activity [41]: 31%
